A word on the melting point: it is the temperature of the solid-liquid transition.

Where a name gives a salt, the structure may show the parent alone.

The compound `O=[N+]([O-])c1ccc2c(c1)C1CCC2CNC1` (stereo not shown) (as salt: hydrochloride) came in with a melting point of 252 °C.

The record behind these values is patent publication US20050020616A1, “Aryl fused azapolycyclic compounds” (Pfizer Inc, priority 2003, published 2005).
